Consider seven compounds from ChEMBL document CHEMBL1201862, “PubChem BioAssay data set” (2004).

Test systems include MDA-MB-231; SNB-75; UO-31; COLO 205; ACHN; K562; SF-295; Malme-3M; OVCAR-5; HCC 2998; HOP-92; SR; NCI-H23; M14; Hs-578T; HL-60; NCI-H460; SF-268; OVCAR-3; EKVX.
Holding throughout (assay): NCI-60 cell line screen, 48 h

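96-well plates; 48 h exposure; 5 concentrations. Endpoints by linear interpolation between flanking doses. Not reached: highest tested concentration assigned. GI50 = concentration required for 50% inhibition of growth.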 Calls of active or inactive are those of the source. Cut-off read from the data, not from the text of the source: active = GI50 up to about 1.1 µM and inactive = higher. A value given as a limit tells only on which side of the number the result lay.

`O[C@H]1[C@H](O)[C@@H](Cn2nnc(-c3ccccc3)c2-c2ccccc2)OCO[C@@H]1Cn1nnc(-c2ccccc2)c1-c1ccccc1`: the GI50 was 6.47 µM (inactive) in the assay on MDA-MB-231; 7.82 µM (inactive) with SNB-75; 4.19 µM (inactive) with UO-31; 4.99 µM (inactive) in the assay on COLO 205; 3.63 µM (inactive) in the assay on ACHN; 4.01 µM (inactive) with K562. Besides, the GI50 in the assay on SF-295 was 3.78 µM (inactive); with Malme-3M, 9.42 µM (inactive); in the assay with OVCAR-5 it was 2.58 µM (inactive); in the assay on HCC 2998, 2.24 µM (inactive); with HOP-92, 2.83 µM (inactive); in the assay with SR it was 2.04 µM (inactive). The GI50 in the assay with NCI-H23 is 5.92 µM (inactive); in the assay with M14, 3.37 µM (inactive); with Hs-578T, 6.85 µM (inactive); in the assay with HL-60, 3.88 µM (inactive); with NCI-H460, 3.67 µM (inactive); with SF-268, 4.85 µM (inactive). The GI50 with OVCAR-3 is 2.96 µM (inactive); with EKVX, 6.47 µM (inactive).

In the case of `Cc1ccc(/C=N/NS(=O)(=O)c2ccc(/C=C3\NC(=O)NC3=O)cc2)cc1`, the GI50 with MDA-MB-231 is 37.1 µM (inactive); in the assay with SNB-75, 18.2 µM (inactive); in the assay with UO-31, > 100 µM (inactive); in the assay with COLO 205, > 100 µM (inactive); with ACHN, > 100 µM (inactive); with K562, > 100 µM (inactive). Also, the GI50 is 46.7 µM (inactive) in the assay on SF-295; > 100 µM (inactive) with Malme-3M; 35.9 µM (inactive) in the assay with OVCAR-5; > 100 µM (inactive) in the assay on HCC 2998; 53.7 µM (inactive) in the assay on HOP-92; 31.6 µM (inactive) in the assay with SR. Moreover, the GI50 was > 100 µM (inactive) in the assay on NCI-H23; > 100 µM (inactive) with M14; 24.2 µM (inactive) in the assay with Hs-578T; > 100 µM (inactive) in the assay with HL-60; > 100 µM (inactive) in the assay with NCI-H460; 22.1 µM (inactive) with SF-268. The GI50 is > 100 µM (inactive) with OVCAR-3 and 64.9 µM (inactive) with EKVX.

`CC(=O)Nc1ccc2c3c(cc(O)c2c1)N(C(=O)CCCC(=O)Nc1ccc2c4c(cc(O)c2c1)N(C(=O)OC(C)(C)C)CC4CCl)CC3CCl` (stereo not given): the GI50 is 1.47 µM (inactive) with MDA-MB-231; 1.99 µM (inactive) in the assay with SNB-75; > 38.5 µM (inactive) with UO-31; 1.22 µM (inactive) with COLO 205; 5.22 µM (inactive) in the assay on ACHN; 1.22 µM (inactive) in the assay with K562. The GI50 was 13.4 µM (inactive) in the assay with SF-295; 0.78 µM (active) in the assay on Malme-3M; 2.3 µM (inactive) in the assay with OVCAR-5; 0.771 µM (active) in the assay with HCC 2998; 2.01 µM (inactive) in the assay on HOP-92; 0.0221 µM (active) in the assay on SR. The GI50 in the assay on NCI-H23 was 1.42 µM (inactive); with M14, 3.22 µM (inactive); in the assay on Hs-578T, 1.55 µM (inactive); in the assay with HL-60 it was 0.118 µM (active); in the assay with NCI-H460 it was 1.48 µM (inactive); with SF-268 it was 0.195 µM (active). In addition, the values for the GI50 in the assay on OVCAR-3 and in the assay on EKVX were 1.1 µM (active) and 5.24 µM (inactive), respectively.

Turning to `Nn1c(=O)[nH]c2ncn(Cc3ccccc3)c2c1=O`, the GI50 in the assay with MDA-MB-231, in the assay with SNB-75, in the assay with UO-31, in the assay with COLO 205, in the assay on ACHN and in the assay on K562 was > 100 µM (inactive) in each case. The GI50 with SF-295, with Malme-3M, in the assay with OVCAR-5, with HCC 2998, in the assay with HOP-92 and in the assay on SR was > 100 µM (inactive) throughout. In addition, the GI50 with NCI-H23, in the assay on M14, in the assay with Hs-578T, in the assay with HL-60, in the assay on NCI-H460 and in the assay with SF-268 was > 100 µM (inactive) throughout. The GI50 in the assay with OVCAR-3 and in the assay with EKVX was > 100 µM (inactive) in each case.

For the compound `Nc1cc2[nH]cnc2c(=O)[nH]1` [DEZAGUANINE], the GI50 with MDA-MB-231 was 49.9 µM (inactive); with SNB-75, 90.8 µM (inactive); with UO-31 it was 32.3 µM (inactive); in the assay on COLO 205, 21.9 µM (inactive); in the assay on ACHN, 8.87 µM (inactive); with K562, 12.3 µM (inactive). Also, the GI50 in the assay on SF-295 was > 219 µM (inactive); in the assay on Malme-3M, 47.6 µM (inactive); in the assay with OVCAR-5 it was 45.5 µM (inactive); in the assay on HCC 2998, 82.8 µM (inactive); in the assay on HOP-92, 77.8 µM (inactive); in the assay with SR, 9.1 µM (inactive). In addition, the GI50 with NCI-H23 is 31.6 µM (inactive); in the assay with M14, 45.6 µM (inactive); in the assay on Hs-578T, > 196 µM (inactive); in the assay with HL-60, 6.21 µM (inactive); in the assay on NCI-H460 it was 10.4 µM (inactive); in the assay with SF-268 it was 15 µM (inactive). The results for the GI50 with OVCAR-3 and in the assay on EKVX were 11 µM (inactive) and 56.2 µM (inactive), respectively.

`CCN(CC)CCOc1ccc(N2Cc3ccccc3C2=O)cc1`: the GI50 in the assay on MDA-MB-231, with SNB-75, in the assay with UO-31, in the assay with COLO 205, in the assay with ACHN and in the assay with K562 was > 10 µM (inactive) each time. The GI50 with SF-295, in the assay on Malme-3M, in the assay on OVCAR-5, in the assay with HCC 2998, with HOP-92 and in the assay on SR was > 10 µM (inactive) each time. Further, the GI50 in the assay on NCI-H23 was > 10 µM (inactive); in the assay on M14, > 10 µM (inactive); with Hs-578T, > 10 µM (inactive); in the assay on HL-60, > 10 µM (inactive); in the assay on NCI-H460, 7.28 µM (inactive); in the assay with SF-268, > 10 µM (inactive). For the same compound, the GI50 in the assay with OVCAR-3 and in the assay with EKVX was > 10 µM (inactive) in each case.

As to `C[N+]1(CCC(=O)c2ccccc2)CCC2CCC(C2)C1` (stereo not given), the GI50 with MDA-MB-231, in the assay with SNB-75, with UO-31, with COLO 205, in the assay with ACHN and in the assay with K562 was > 100 µM (inactive) throughout. Further, the GI50 in the assay with SF-295, in the assay on Malme-3M, in the assay on OVCAR-5, with HCC 2998, in the assay with HOP-92 and in the assay on SR was > 100 µM (inactive) in each case. The GI50 in the assay on NCI-H23, in the assay with M14, in the assay on Hs-578T, in the assay on HL-60, with NCI-H460 and in the assay with SF-268 was > 100 µM (inactive) throughout. Further, the GI50 with OVCAR-3 and in the assay with EKVX was > 100 µM (inactive) each time.
